Assay results from patent US20210137961A1, “Compositions and Methods for Treating Dry Eye Diseases” (priority 2017, published 2021).
In brackets after ≈: the same amount, converted by molar mass.

Key:
[1] = Corneal permeability, Franz-Cell Diffusion Apparatus; format: in vitro ADME, bovine (calf)
Experimental: EXAMPLE. Corneal Permeability. Corneal permeability is determined using conventional protocols. Briefly, corneal permeability is determined on freshly excised bovine (calf) cornea using a Franz-Cell Diffusion Apparatus generally with n=3/group. Freshly excised calf cornea are stored until use in hydrating solution containing glutathione and buffer. The Apparatus includes a donor chamber on the top where a predetermined volume of the formulation is pipetted and a jacketed receptor cell with a sampling side arm. The joint between the donor and receptor cell is upward-convex, mimicking the shape of the cornea. The corneal membrane is placed on the ball joint with the cornea facing the donor chamber. The Apparatus is clamped to secure the cells with the donor and receptor chambers aligned. […] The volume is recorded. […] Test samples are added in rapid succession by depositing 200 μL of the formulation into each donor chamber using a calibrated pipet and the times recorded. […] Flux can be calculated by the formula: J=Q/(A·t), where Q is the quantity (micrograms) of compound traversing the membrane in time t (minutes), and A is the area of exposed membrane in cm^2. […] After completion of the diffusion, corneas are weighed to determine the quantity of bound test compound in the cornea, and the corneal thicknesses of each cornea is measured at the point of diffusion (the center) using Vernier calipers. […]

[2] = test system: phagocytized L. pneumophila; format: cell-based
[3] = Protein binding in plasma; format: in vitro ADME
CXCL8 = test: LPS-induced CXCL8 (IL-8) production in PMA-differentiated U937 cells (ELISA); format: cell-based, human
Experimental: EXAMPLE. […] Cells. The human monocytic cell line U937 was obtained from the American Type Culture Collection (ATCC, Rockville, Md.). PBMCs from COPD patients were obtained from Brompton hospital and separated by AccuSPIN (Sigma-Aldrich). […] U937 cells were differentiated into adherent macrophage-like morphology by exposure to PMA (50 ng/ml) for 48 h in complete growth medium. Cell viability was assessed microscopically by trypan blue staining. Cell toxicity was determined by MTT assay as needed. This study was approved by the ethics committee of the Royal Brompton Hospitals, and all subjects gave written informed consent. Cytokine ELISA. TNFα and IL-8 concentrations in the supernatant of cell cultures were determined by sandwich ELISA according to the manufacturer's instructions (R&D Systems Europe, Abingdon, UK). Statistical analysis. The results were expressed as the mean±SEM. Comparisons of data in two groups were performed using the Student's t test or the Wilcoxon signed rank test. Multiple comparisons were made by one-way ANOVA with post hoc test (Dunnett's) as appropriate. The difference was considered significant at p<0.05. […] Anti-inflammatory effects of solithromycin in U937 cells.

MMP9 = MMP9 activity in PMA-stimulated U937 cells (gelatin zymography); format: cell-based, human; settings: PMA stimulation
Experimental: EXAMPLE. […] Cells. The human monocytic cell line U937 was obtained from the American Type Culture Collection (ATCC, Rockville, Md.). PBMCs from COPD patients were obtained from Brompton hospital and separated by AccuSPIN (Sigma-Aldrich). […] U937 cells were differentiated into adherent macrophage-like morphology by exposure to PMA (50 ng/ml) for 48 h in complete growth medium. Cell viability was assessed microscopically by trypan blue staining. Cell toxicity was determined by MTT assay as needed. This study was approved by the ethics committee of the Royal Brompton Hospitals, and all subjects gave written informed consent. Zymography. MMP9 enzyme activity was measured by gelatin zymography. […] After electrophoresis, gels were incubated and rinsed with Novex® zymogram renaturing buffer (Invitrogen) for 30 min at room temperature. The gels were then rinsed in Novex® zymogram developing buffer (Invitrogen) for 30 min at room temperature prior to overnight incubation in the developing buffer at 37° C. After incubation, the gels were stained using a Colloidal Blue Staining Kit (Invitrogen) to visualize the zymogen bands. Statistical analysis. The results were expressed as the mean±SEM. Comparisons of data in two groups were performed using the Student's t test or the Wilcoxon signed rank test. Multiple comparisons were made by one-way ANOVA with post hoc test (Dunnett's) as appropriate. The difference was considered significant at p<0.05.

S. pneumoniae = test: MIC against S. pneumoniae (30 species); format: cell-based
MSRA = test: MIC against MSRA (30 species); format: cell-based
S. epidermidis = test: MIC against S. epidermidis (30 species); format: cell-based
Corynebacterium spp. = test: MIC against Corynebacterium spp.; format: cell-based; settings: N 10
Chlamydophila pneumoniae = test: MIC against Chlamydophila pneumoniae; format: cell-based
Peptostreptococcus spp. = test: MIC against Peptostreptococcus spp.; format: cell-based; settings: N 10
Ureaplasma urealyticum = test: MIC against Ureaplasma urealyticum; format: cell-based; settings: N 10

Q: Which results are given for `CC[C@H]1OC(=O)[C@@](C)(F)C(=O)[C@H](C)[C@@H](O[C@@H]2O[C@H](C)C[C@H](N(C)C)[C@H]2O)[C@](C)(OC)C[C@@H](C)C(=O)[C@H](C)[C@H]2N(CCCCn3cc(-c4cccc(N)c4)nn3)C(=O)O[C@]12C` [Solithromycin, solithromycin]?
A: time after administration at which compound is observed in receptor fluid ([1]; bovine cornea, Franz cell): ≤ 1 h; concentration in receptor fluid ([1]; within 1 h of administration): > 1000 ng/mL; potency relative to azithromycin [2]: 100 fold; protein binding in plasma [3]: 86%; IC50 (CXCL8; LPS, PMA-differentiated U937 cells, read-out: IC50 on CXCL8 release): 78.2 ± 9.5 µM; inhibition of CXCL8 (IL-8) production (in words) (CXCL8; solithromycin and telithromycin at 100 μM, clarithromycin at 333 μM): significantly inhibited; IC50 (MMP9): 14.9 ± 3.1 µM; I = intermediate susceptibility (S. pneumoniae): 0%; MIC50 (S. pneumoniae): 0.002 µg/mL (≈ 0.00237 µM); MIC90 (S. pneumoniae): 0.12 µg/mL (≈ 0.142 µM); MIC Range (S. pneumoniae): ≤0.001-0.25 ^ μg/ml; NS = not susceptible (S. pneumoniae): 0%; S = susceptible (S. pneumoniae): 100%; I = intermediate susceptibility (MSRA): 0%; MIC50 (MSRA): 0.03 µg/mL (≈ 0.0355 µM); MIC90 (MSRA): 64 µg/mL (≈ 75.7 µM); NS = not susceptible (MSRA): 30%; S = susceptible (MSRA): 70%; I = intermediate susceptibility (S. epidermidis): 3%; MIC50 (S. epidermidis): 0.015 µg/mL (≈ 0.0178 µM); MIC90 (S. epidermidis): 32 µg/mL (≈ 37.9 µM); NS = not susceptible (S. epidermidis): 17%; S = susceptible (S. epidermidis): 80%; MIC50 (Corynebacterium spp.): 0.015 µg/mL (≈ 0.0178 µM); MIC90 (Corynebacterium spp.): 0.5 µg/mL (≈ 0.592 µM); MIC Range (Corynebacterium spp.): ≤0.008-16 ^ μg/mL; MIC90 (Chlamydophila pneumoniae; Chlamydophila pneumoniae (10 strains)): 0.25 µg/mL (≈ 0.296 µM); MIC50 (Chlamydophila pneumoniae; Chlamydophila pneumoniae, N 10): 0.25 µg/mL (≈ 0.296 µM); MIC90 (Chlamydophila pneumoniae; Chlamydophila pneumoniae, N 10): 0.25 µg/mL (≈ 0.296 µM); MIC Range (Chlamydophila pneumoniae; Chlamydophila pneumoniae, N 10): 0.25 to 1 µg/mL; MIC50 (Peptostreptococcus spp.): 0.06 µg/mL (≈ 0.071 µM); MIC90 (Peptostreptococcus spp.): 0.25 µg/mL (≈ 0.296 µM); MIC Range (Peptostreptococcus spp.): ≤0.03-0.25^ μg/mL; MIC50 (Ureaplasma urealyticum): 0.008 µg/mL (≈ 0.00947 µM); MIC90 (Ureaplasma urealyticum): 0.031 µg/mL (≈ 0.0367 µM); MIC Range (Ureaplasma urealyticum): 0.004 to 0.063 µg/mL
